From patent US9844540B2, “Combination therapies for treating cancer” (RedHill Biopharma Ltd., priority 2015, dated 2017)
Several values for one entry are separate records, joined by “and”; a condition that tells them apart may be missing. Identical values can stand only once. Like-named read-outs stand apart in the source and are kept apart here.

What was measured:
[1] = test system: MIA PaCa-2 pancreatic cancer cell line; experiment: In vitro cytotoxicity MTT assay, MIA PaCa-2; format: cell-based, human; settings: 3 days
Description: (§1) The following experiment was performed to assess the potential of combination agents of the present disclosure for their capability of inhibiting the growth or proliferation of pancreatic cancer cells comprising contacting pancreatic cancer cells with effective amounts of the agents, alone and in combination, thereby inhibiting the growth or proliferation of the pancreatic cancer cells.
(§2) The present study investigated whether clarithromycin+rifabutin+clofazimine (“Combo”) would be synergistic with [3-(4-chlorophenyl)-adamantane-1-carboxylic acid (pyridin-4-ylmethyl)amide] (“ABC2640”) against MIA PaCa-2, PANC-1, and Hs 766T pancreatic cancer cell lines. Hs 766T is a cell line derived from the lymph node metastasis of a person with pancreas carcinoma. MIA PaCa-2 is a cell line derived from the pancreas adenocarcinoma of a person who presented with abdominal pain for 6 months and a palpable upper abdominal mass. PANC-1 was cultured from a person with an adenocarcinoma in the head of the pancreas which invaded the duodenal wall.
(§3) The MTT assay is commonly used to determine cytotoxicity of potential medicinal agents, since these types of materials are expected to stimulate or inhibit cell viability and growth. Briefly, 3,000 cells were plated/well—100 μl/well. After overnight, prior to the assay, 50 μl supernatant was removed from each well. Each drug was added at 4× of the final concentration (in 50 μl). Total volume of each well was 200 μl. 4 wells had been used as a control and contained no cells at all. The plate was developed after being incubated for 3 days at 37° C. 20 μl of Promega Substrate Cell Titer 96 Aqueous One Solution Reagent was added to each well, incubated at 37° C. and read OD at 490 nm. The MTT test is based on the enzymatic reduction of the tetrazolium salt MTT [3-(4,5-dimethylthiazol-2-yl)-2,5-diphenyl-tetrazoliumbromide^+++] in living, metabolically active cells but not in dead cells. The reaction is carried out in situ in multiwell plates, and the reaction product, a purple-colored formazan soluble in dimethylsulfoxide, is measured colorimetrically, using a multiwell plate reader.

[2] = test system: Hs 766T pancreatic cancer cell line; experiment: In vitro cytotoxicity MTT assay, Hs 766T; format: cell-based, human; settings: 3 days
Description: as §1, §2, §3

[3] = test system: PANC-1 pancreatic cancer cell line; experiment: In vitro cytotoxicity MTT assay, PANC-1; format: cell-based, human; settings: 3 days
Description: as §1, §2, §3

[4] = physchem; format: physicochemical; settings: aqueous with cosolvent or surfactant or cyclodextrin
[5] = test system: MCF-10A non-transformed human breast epithelial cells; experiment: Cytotoxicity, SRB assay, MCF-10A; format: cell-based; settings: 48 h, SRB binding assay, read-out: IC50 (concentration that inhibited proliferation by 50%)
Description: (§4) To assess the biological efficacy of ABC294640 in intact cells, ABC294640 was evaluated for cytotoxicity using human cancer cell lines. These experiments followed methods that have been extensively used. Cell lines tested included MCF-7 human breast adenocarcinoma cells and MCF-10A non-transformed human breast epithelial cells. The indicated cell lines were treated with varying doses of ABC294640 for 48 h. Cell survival was then determined using the SRB binding assay (Skehan et al., 1990, J Natl Cancer Inst 82: 1107), and the concentration of ABC294640 that inhibited proliferation by 50% (the IC50) was calculated. […] ABC294640 is antiproliferative at sub-to-low-micromolar.

[6] = test system: MCF-7 human breast adenocarcinoma cells; experiment: Cytotoxicity, SRB assay, MCF-7; format: cell-based; settings: MCF7, 48 h, read-out: IC50 (concentration that inhibited proliferation by 50%)
Description: as §4

[7] = test system: mouse JC mammary adenocarcinoma cell line; experiment: Antitumor activity in syngeneic JC mammary adenocarcinoma model; format: in vivo, Balb/c mice
Description: The antitumor activity of ABC294640 was evaluated using a syngeneic tumor model that uses the mouse JC mammary adenocarcinoma cell line growing subcutaneously in immunocompetent Balb/c mice (Lee et al., 2003, Oncol Res 14: 49). These cells express elevated levels of SK activity relative to non-transformed cells, as well as the multidrug resistance phenotype due to P-glycoprotein activity.
Balb/c mice, 6-8 weeks old, were injected subcutaneously with 10^6 JC cells suspended in phosphate-buffered saline. ABC294640 was dissolved in PEG400 and administered to mice every-other day at a dose of 100 mg/kg. Body weights and tumor volumes were monitored daily. […] ABC294640 inhibited tumor growth relative to controls by 69%.

[8] = mouse, in vivo
Description: […]. […] ABC294640 could also be administered orally to mice at doses up to at least 100 mg/kg without noticeable toxicity.

[9] = test system: human tumor cell strain K562-WT
Description: (§5) The human tumor cell strain K562-WT and the tumor cell strain F46-WT of the mouse (WT=wild type=sensitive to cytostatic treatment=no amplification of the MDR-gene) is treated over several weeks with staged increase in concentrations of adriamycin. […] The formation of resistance is based on the amplification of the MDR gene.

[10] = test system: AH13r sarcoma cells; experiment: BVDU and chemotherapy-induced apoptosis in AH13r sarcoma cells; format: cell-based
Excerpt: AH13r cells were subjected to increasing doses of the cytostatic mitomycin C (MMC). […] This inhibitory effect was maintained even after discontinuation of the cytostatic in the next cycle, in the so-called recovery phase. The cells without MMC and BVDU continued to grow without inhibition. […] The indication that the reduction in cell number is based on apoptosis, was detected by means of Hoechst 33258/propidium iodide (Hopi) double colouration.

[11] = test system: tumor cell strain F46-WT of the mouse; settings: for formation of resistance to adriamycin: 6 to 8 weeks
Description: as §5
The tumor cell strain F4-6-WT of the mouse (WT=wild type=sensitive to cytostatic treatment=no amplification of the MDR gene) is treated over several weeks with staged increases in concentration of adriamycin. […] The formation of resistance is based on the amplification of the MDR gene. The levels of β-actin MRNA are likewise analyzed as comparison. β-actin is used as an internal control for the RNA quantity.

[12] = test system: Hep-G2 (liver); experiment: Tumor cell line panel, sulforhodamine B, Hep-G2; format: cell-based; settings: Homo sapiens, HepG2, 48 hours, mean ± sd
Description: (§6) To examine the range of anticancer, the chemotherapeutic potency of ABC294640 towards a panel of varied human tumor cell lines representing several major tumor types were determined. […] [table]

[13] = test system: T24 (bladder); experiment: Tumor cell line panel, sulforhodamine B, T24; format: cell-based; settings: Homo sapiens, 48 hours, mean ± sd
Description: as §6

[14] = test system: LPS-induced cytokine production; experiment: LPS-induced cytokine production in C57BL/6 mice; format: in vivo; settings: serum 2 hours after LPS; dosed once 1 hour before LPS; dexamethasone 5 mg/kg i.p., RHB-104 108 mg/kg p.o.
Description: This study was performed to evaluate the effects of RHB-104 (as detailed above) dosed orally at 108 mg/kg on lipopolysaccharide (LPS)-induced cytokine production in mice. The LPS-induced cytokine production model in mice is commonly used to test the ability of compounds to suppress production of pro-inflammatory cytokines TNF and IL-6 in vivo.
In this model LPS is injected into mice intraperitoneally (i.p.) or intravenously. Two hours after the LPS injection, concentrations of IL-6 and TNF reach peak levels in serum of the injected mice.
30 female C57BL/6 mice, 11 weeks old, were dosed once with RHB-104, then injected with LPS 1 hour later. 2 hours after LPS injection, mice were bled and serum was isolated. The concentration of cytokines in serum was measured. Dexamethasone administered at 5 mg/kg i.p. was used as positive control for suppression of the immune response. Dexamethasone suppresses production of pro-inflammatory cytokines TNF and IL-6 increases production of anti-inflammatory cytokine IL-10.
Serum concentrations of IL-2, IL-4, IL-6, IL-10, IL-17, IFN-γ and TNF were measured using cytokine bead analysis (CBA) Th1/Th2/Th17 kit (Becton Dickinson). Concentrations of cytokines in serum between groups were compared using 2-tailed Student's t-test.

[15] = test system: BN472 breast cancer; experiment: In vivo assay of WX-671 in the BN472 rat breast cancer model; set-up: species or system brown Norwegian rats; settings: WX-UK1 1 mg/kg i.p. daily, 30 days
Description: The treatments started 72 h after tumor implantation and were repeated daily until the animals were sacrificed after 30 days. The control group (A) received 0.75 ml of the substance-free substance carrier solution consisting of 5% ethanol, 5% D-mannitol and 5% Tween 20 in water orally by gavage.
Growth of the inoculated tumors was determined in the dimensions length and width twice weekly, using a slide gauge. After the animals had been sacrificed, the therapy end points, tumor weight, weights of the axillary and intraperitoneal lymph nodes and also the number of macroscopic lung metastases were determined.

[16] = test system: rat pancreatic tumor model, CA20948; experiment: In vivo test of WX-671 in the pancreatic adenocarcinoma model CA20948; settings: 0.3 mg/kg by intraperitoneal injection; vehicle 30.7%
Description: Groups of eighteen rats were inoculated with tumor by intraperitoneal injection of a tumor cell suspension, prepared from a solid tumor harvested from a donor rat.
In this model the intraperitoneally grafted cells migrate to the pancreas to form a pancreatic tumor intimately associated with the pancreas. Within 3 weeks the tumor disseminates typically to the liver to form metastatic lesions which can be counted. Treatments at dose levels of 0.03, 0.3 and 3.0 mg/kg once daily were orally applied daily from day 3 onwards.
The percentage of large liver foci was determined by dividing the number of large lesions by the number of total lesion detected on the livers.

## O=C(NCc1ccncc1)C12CC3CC(C1)CC(c1ccc(Cl)cc1)(C3)C2 [ABC640, 3-(4-chlorophenyl)-adamantane-1-carboxylic acid (pyridin-4-ylmethyl)amide]
[1]; 25 μM
  Toxicity (%): 11%
[1]; 50 μM
  Toxicity (%): 92%
[2]; 25 μM
  Toxicity (%): 17%
[2]; 50 μM
  Toxicity (%): 72%
[3]; 25 μM
  Toxicity (%): 0%
[3]; 50 μM
  Toxicity (%): 68%

## O=C(NCc1ccncc1)C12CC3CC(C1)CC(c1ccc(Cl)cc1)(C3)C2 [ABC294640, 3-(4-chlorophenyl)-adamantane-1-carboxylic acid (pyridin-4-ylmethyl)amide]
[4]
  solubility: ≥ 15000 µg/mL and 30000 µM to 40000 µM
[5]
  IC50: 21 µM
[6]
  IC50: 17 µM
[7]; 100 mg/kg in PEG400 every-other day
  inhibition of tumor growth relative to controls: 69%
[7]; 100 mg/kg in PEG400 every-other day, day 16
  decrease of tumor growth versus control animals: > 70%
[7]; orally administered
  oral dose with antitumor activity (dose-response studies): ≥ 35 mg/kg
[8]; female, Swiss-Webster, ip
  dose with no immediate or delayed toxicity, acute toxicity: at least 50 mg/kg
[8]; po
  oral dose without noticeable toxicity: at least 100 mg/kg

## O=c1[nH]c(=O)n(C2CC(O)C(CO)O2)cc1/C=C/Br (centres unmarked) [BVDU, (E)-5-(2-bromovinyl)-2-deoxyuridine]
[9]; K562-WT, 0.5 or 1 μg/ml BVDU together with staged increasing adriamycin, 6 to 8 weeks
  formation of resistance to adriamycin: prevents the formation of resistance to adriamycin
[9]; human
  concentration from which BVDU acts in a toxic manner: about 10 μg/ml
[10]
  toxic effect, given alone: no toxic effect
[10]; continued BVDU without MMC
  cell growth in the recovery phase after discontinuation of the cytostatic: greatly inhibited in their growth
[11]; F4-6-WT, 1 μg/ml BVDU with adriamycin
  formation of resistance to adriamycin: prevented the formation of resistance to adriamycin
[11]; F46-WT, 0.5 or 1 μg/ml BVDU together with staged increasing adriamycin
  formation of resistance to adriamycin: prevents the formation of resistance to adriamycin
[11]; mouse
  concentration from which BVDU acts in a toxic manner: about 8 μg/ml

## O=C(NCc1ccncc1)C12CC3CC(C1)CC(c1ccc(Cl)cc1)(C3)C2 [Compound 62, 3-(4-Chloro-phenyl)-adamantane-1-carboxylic acid(pyridin-4-ylmethyl)-amide]
[12]
  IC50: 6 ± 2.6 µM
[13]
  IC50: 39.4 ± 7.4 µM

## C[C@@H]1C[C@H]2[C@@H]3CCC4=CC(=O)C=C[C@]4(C)[C@@]3(F)[C@@H](O)C[C@]2(C)[C@@]1(O)C(=O)CO [Dexamethasone, dexamethasone]
[14]
  IL-6 (pg/mL) ± SD: 1259 ± 295 pg/mL
  IL-10 (pg/mL) ± SD: 106 ± 66 pg/mL
  TNF (pg/mL) ± SD: 35 ± 10 pg/mL

## CCOC(=O)N1CCN(C(=O)[C@H](Cc2cccc(C(=N)N)c2)NS(=O)(=O)c2c(C(C)C)cc(C(C)C)cc2C(C)C)CC1.Cl [UK-1]
[1]; 5 μM
  Toxicity (%): 33%
[1]; 10 μM
  Toxicity (%): 0%
[1]; 20 μM
  Toxicity (%): 0%
[2]; 5 μM
  Toxicity (%): 35%
[2]; 10 μM
  Toxicity (%): 28%
[2]; 20 μM
  Toxicity (%): 19%
[3]; 5 μM
  Toxicity (%): 0%
[3]; 10 μM
  Toxicity (%): 0%
[3]; 20 μM
  Toxicity (%): 14%

## CCOC(=O)N1CCN(C(=O)[C@H](Cc2cccc(C(=N)N)c2)NS(=O)(=O)c2c(C(C)C)cc(C(C)C)cc2C(C)C)CC1 [WX-UK1, Na-(2,4,6-triisopropylphenylsulfonyl)-3-amidino-(L)-phenylalanine-4-ethoxycarbonylpiperazide]
[15]
  reduction of average tumor weights at the end of the treatment compared to the control: approx. 5%
[16]
  percentage large mets (>2 mm liver lesions of total liver lesions): 13.4%

## COc1cccc2c1C(=O)c1c(O)c3c(c(O)c1C2=O)C[C@@](O)(C(=O)CO)C[C@@H]3O[C@H]1C[C@H](N)[C@H](O)[C@H](C)O1 [adriamycin]
[9]; K562-WT, 20 ng/ml, treatment time 4 days
  toxic effect on non-resistant cells: severely toxic effect

## CC[C@H]1OC(=O)[C@H](C)[C@@H](O[C@H]2C[C@@](C)(OC)[C@@H](O)[C@H](C)O2)[C@H](C)[C@@H](O[C@@H]2O[C@H](C)C[C@H](N(C)C)[C@H]2O)[C@](C)(OC)C[C@@H](C)C(=O)[C@H](C)[C@@H](O)[C@]1(C)O [clarithromycin, Clarithromycin]
[1]; 100 μM
  Toxicity (%): 0%
[2]; 100 μM
  Toxicity (%): 29%
[3]; 100 μM
  Toxicity (%): 7%

## CC(C)/N=c1\cc2n(-c3ccc(Cl)cc3)c3ccccc3nc-2cc1Nc1ccc(Cl)cc1 [clofazimine, Clofazimine]
[1]; 5 μM
  Toxicity (%): 4%
[2]; 5 μM
  Toxicity (%): 62%
[3]; 5 μM
  Toxicity (%): 41%

## CO[C@H]1/C=C/O[C@@]2(C)Oc3c(C)c(O)c4c(c3C2=O)C2=NC3(CCN(CC(C)C)CC3)NC2=C(NC(=O)/C(C)=C\C=C\[C@H](C)[C@H](O)[C@@H](C)[C@@H](O)[C@@H](C)[C@H](OC(C)=O)[C@@H]1C)C4=O [rifabutin, Rifabutin]
[1]; 35 μM
  Toxicity (%): 8%
[2]; 70 μM
  Toxicity (%): 20%
[3]; 70 μM
  Toxicity (%): 0%
